Measurements as given in patent US20250017888A1, “COMPOUNDS FOR TREATING DISEASES ASSOCIATED WITH HYALURONAN OVERPRODUCTION” (THE ROYAL VETERINARY COLLEGE, priority 2021, published 2025).
Entries after “also recorded” stand apart in the source; their conditions may differ.

How the values were obtained:
Format in all cases: in vivo, mouse
[1] = tested on: Str/ort mice; assay: Micro-CT of tibial trabecular and cortical bone in Str/ort mice; settings: 10-90% of total tibial length, vs vehicle
[2] = tested on: Str/ort mice; assay: as above
Description: At 10-13 weeks of age, 21 male Str/ort mice (n=7/group) were assigned randomly to vehicle, hylin-betaine and xantho-betaine groups and were treated intraperitoneally 18 weeks with either vehicle (5% DMSO in 95% peanut oil), 50 mg/kg compound of Example 1 (“hylin-betaine”) in 5% DMSO and 95% peanut oil or 50 mg/kg compound of Example 2 (“xantho-betaine”) in 5% DMSO and 95% peanut oil. Micro-CT scanning and analysis were performed as described previously. Briefly, tibiae from vehicle, hylin-betaine and xantho-betaine treated groups were scanned using the Skyscan 1172 (Skyscan, Kontich, Belgium), with x-ray tube operated at 50 kV and 200 Micro-A, 1600 ms exposure time with a 0.5 mm aluminium filter and a voxel size of micro-m 5. The scanning time for each sample was approximately 2 hours. The slices were then reconstructed using NRecon 1.6.9.4 (Skyscan, Kontich, Belgium). 2D/3D analyses were performed using CTAn 1.15.4.0+ version software (Skyscan, Kontich, Belgium). Additionally, 3D visualization and production of colour-coded images of trabecular, cortical and skull bones were conducted using Avizo 9.0.0 software (FEI, Oregon USA). • a. Trabecular analysis: prior to analysis, Micro-CT images were re-oriented in DataViewer 1.5.0 (Skyscan, Kontich, Belgium), such that the cross-section within the transverse plane was perpendicular to the long axis of the bone. Tibial length was measured in CTAn 1.15.4.0+ software using a straight line measuring tool and the appearance of the trabecular ‘bridge’ connecting the two primary spongiosa bone ‘islands’ was set as reference point for analysis of the metaphyseal trabecular bone adjacent to the epiphyseal growth plate. 5% of the total bone length from this point (towards the diaphysis) was utilised for trabecular analysis of the proximal tibia. The trabecular region of interest was drawn freehand using the selection tool of CTAn, a few voxels away from the endocortical surfaces in order to avoid inclusion of remnants of primary spongiosa associated with cortical bone. The selected trabecular regions of interests were analysed using CTAn BatMan software (Skyscan, Kontich, Belgium) and morphometric parameters were recorded. • b. Whole bone cortical analysis: Whole bone analysis was performed on datasets derived from CT scans using BoneJ (version 1.4.0), an ImageJ plugin. Following segmentation, alignment and removal of fibula from the dataset, a minimum bone threshold was selected using a histogram based method in ImageJ which utilises all pixels in a stack to construct a histogram and was further confirmed using ImageJ “threshold function”. The threshold ranged between 22000-22100 and was applied to all datasets to separate higher density bone from soft tissues and air. This threshold was used in “Slice Geometry” function within BoneJ to calculate bone cross sectional area (CSA), second moment of area around the minor axis (Imin), second moment of area around the major axis (Imax), mean thickness determined by local thickness in two dimensions (Ct.Th), ellipticity and resistance to torsion (J). The most proximal (15%) and the most distal portions (25%) of tibial length were excluded from analysis, as these regions include trabecular bone.

[3] = tested on: Str/ort mice; assay: Gait analysis (treadmill, Digigait) in Str/ort mice
Description: (§1) At 10-13 weeks of age, 21 male Str/ort mice (n=7/group) were assigned randomly to vehicle, hylin-betaine and xantho-betaine groups and were treated intraperitoneally 18 weeks with either vehicle (5% DMSO in 95% peanut oil), 50 mg/kg compound of Example 1 (“hylin-betaine”) in 5% DMSO and 95% peanut oil or 50 mg/kg compound of Example 2 (“xantho-betaine”) in 5% DMSO and 95% peanut oil.
Gait was monitored using a treadmill-based video system (DigigaitTM system) in three treatment groups of mice at three time point, week 1, week 9 and week 18 of treatment. The number of mice was 7, 7 and 5 in groups 1, 2 and 3, respectively.
[…] gait descriptors were used for the analyses. Thirty-four descriptors were obtained directly from the software of the system in the 4 limbs (LF: left front; RF: right front; LR: left rear; RR: right rear). All the others (143) were calculated indexes from gait measurements including swing, stance, brake, propel and stride times, stride length, frequency and coefficient of variation, paw area and paw angle and the variability of those two traits, the coefficient of variation of swing duration mid line distance, and minimum and maximum dAdT. The ratios of times were calculated in the 4 limbs: Brake, Propel, and Swing times relative to Stance and Stride times, Stance/Swing and Stance/Stride. In addition, the following additional indexes were considered:
In order to investigate whether there were differences among groups for each descriptor at the three experimental dates, an ANOVA was performed using data corresponding to each descriptor and date. Bonferroni correction was applied to counteract the problem of multiple comparisons.
A t-test analysis was also performed comparing only two groups at a time. In order to assess whether differences between both groups could be due to differences in gait change regarding the initial condition (at 2014/12/23), two sets of analyses were performed for data at 2015/02/18 and 2015/04/14, respectively by using Logistic Regression Analysis. The model included two independent variables: the initial value for each descriptor and the difference between the corresponding value at 2015/02/18 (or 2015/04/14) and the initial value. Bonferroni correction was also applied.

[4] = tested on: Str/ort mice; assay: Histology and grading of articular cartilage lesions in Str/ort mice
Description: At 10-13 weeks of age, 21 male Str/ort mice (n=7/group) were assigned randomly to vehicle, hylin-betaine and xantho-betaine groups and were treated intraperitoneally 18 weeks with either vehicle (5% DMSO in 95% peanut oil), 50 mg/kg compound of Example 1 (“hylin-betaine”) in 5% DMSO and 95% peanut oil or 50 mg/kg compound of Example 2 (“xantho-betaine”) in 5% DMSO and 95% peanut oil. Dissected right knees were fixed in neutral buffered formalin, decalcified (Immunocal, Quartett, Berlin), wax-embedded and 6 μm coronal sections cut. Multiple sections (five/slide) from 120 μm intervals across the whole joint were stained with Tollidine blue (0.1% in 0.1 M acetate buffer, pH 5.6) and AC lesion severity graded. Sections from right vehicle, hylin-betaine and xantho-betaine treated Str/ort joints were stained with Safranin O. Sections were dewaxed, and AC lesion severity was scored in Str/ort mice by the methods of Chambers et al., (Chambers et al Expression of collagen and aggrecan genes in normal and osteoarthritic murine knee joints. Osteoarthritis and cartilage/OARS, Osteoarthritis Research Society. 2002; 10(1):51-61) consistent with an internationally-recognized system. Briefly, grade 0: normal; grade 1: rough surface or superficial zone lesions; grade 2: lesion down to the intermediate zone; grade 3: lesions down to tidemark or loss of AC; grades 4 and 5: AC loss across between 20% and 50% or 50-80% of condylar surface; grade 6: loss with subchondral bone exposure. Multiple slides (˜10), each containing five 6 μm sections sampled at 120 μm intervals spanning each entire joint were graded. Grading in each joint compartment (lateral/medial, tibia/femur) allowed for a maximum (most severe) grade to be assigned in each section, and used to produce an overall ‘average’ maximum grade in each group of mice, for the entire joint and for each compartment. In addition, a mean score was produced for each joint and for each compartment and these similarly used to produce an overall ‘average’ mean grade in each group of mice. Mean grades provide a measure of the ‘extent’ of AC lesion (representing relative volume) in each joint/compartment.

[5] = tested on: Str/ort mice; assay: Health evaluation of treated Str/ort mice; settings: 50 mg/kg intraperitoneally, 18 weeks, vs vehicle
Description: as §1
To assess the health status after hylin-betaine and xantho-betaine treatment, mice were monitored for their health status. The monitoring criteria were body surface temperature, body weight, gait, coat condition, skin tenting for dehydration, hunching, activity, breathing rate and general body condition. Mice were scored blind for each one of these criteria from 1-5 except for body weight and temperature.

[6] = 50 mg/kg intraperitoneally, 18 weeks, vs vehicle
[7] = 50 mg/kg intraperitoneally, 18 weeks

For `COc1cc(/C=C/C(=O)/C=C/c2ccc(OC(=O)C[N+](C)(C)C)c(OC)c2)ccc1O.[Cl-]` [Hylin-betaine, 2-(4-((1E,4E)-5-(4-hydroxy-3-methoxyphenyl)-3-oxopenta-1,4-dien-1-yl)-2-methoxyphenoxy)-N,N,N-trimethyl-2-oxoethanaminium chloride], the “effect on cortical bone (overall)” value [1] was “significantly alter”, the “metaphyseal trabecular bone architecture and mass (tibial length, BV/TV, TV, BV, eccentricity, thickness, separation, number)” value [2, 6] was “do not alter” and the “cortical cross-sectional area (CSA)” value ([2]; apart from one distal region and a region close to tibio-fibula junction) was “do not significantly”. For the same compound, the “mean cortical cross-sectional thickness” value ([2]; multiple regions from −15-60% tibial length, vs vehicle) was “significantly enhanced”, the “second moment of area around minor axis (Imin)” value ([2]; vs vehicle, one region proximally) was “does not affect” and the tibial ellipticity ([2]; vs vehicle, region ˜40-50% along the tibia) was “modified by xantho-betaine but not hylin-betaine”. The “second moment of area around major axis (Imax)” value ([2]; vs vehicle, ˜35-55% of tibial length) was “did not affect”, the “mice that refused to run (drop-out) during the gait studies” value [3, 7] was “no mice” and the “percentage of drop-out regarding the total number of runs” value [3, 7] was 0%. For the same compound, the “distribution of gait data (runs) by treatment group” value (shortened to “distribution of gait data (runs)”) ([3]; 2014 Dec. 23) was 7, the “distribution of gait data (runs)” value ([3]; 2015 Apr. 14) was 7 and the “distribution of gait data (runs)” value ([3]; 2015 Feb. 18) was 7. For the same compound, the “effect on all gait descriptors” value ([3]; any time point, compared with vehicle group) was “no significant effect”, the “effect on articular cartilage lesions / development of OA (overall)” value [4, 6] was “prevents/improves articular cartilage lesions; also recorded: protective effect” and the “Mean OA scores” value ([4]; tibial and femoral lateral knee joint compartments, vs vehicle) was “statistically significantly lower”. The “maximum OA score” value ([4]; vs vehicle treated Str/ort mice) was “trend for lower maximum score” and the “health status: weight, hunching, gait, activity, vocalisation and respiration scores, coat condition” value [5] was “does not alter”.
